Experimental data reported in US8679736B2, “Removal of adenine during a pathogen reduction process in whole blood or red blood cells by dilution” (Terumo BCT Biotechnologies, LLC, priority 2002, dated 2014).

Tested on: red blood cells
Conditions: riboflavin and visible light, FIG. 4
Description: Red blood cells were suspended in AS3 during a pathogen reduction procedure using riboflavin and visible light. […] AS3 contains sodium chloride, dextrose, adenine, sodium phosphate, sodium citrate and citric acid.

Cc1cc2nc3c(=O)[nH]c(=O)nc-3n(CC(O)C(O)C(O)CO)c2cc1C (stereo not shown) [riboflavin, 7,8-dimethyl-10-ribityl isoalloxazine]
% hemolysis of red blood cells: less than 2%
